In patent publication US11229636B2, “Substituted tetrahydroquinolinone compounds as ROR gamma modulators” (Aurigene Discovery Technologies Limited, priority 2015, dated 2022):

Columns and labels:
RORγ LBD = RORγ LBD (Homo sapiens (Human), UniProt P51449); test: ROR gamma radio-ligand binding assay (3H 25-Hydroxycholesterol competitive displacement, dextran charcoal method); details: for inhibition at 1 µM: 1 μM compound; for inhibition at 10 µM: 10 μM compound; for IC50: in range
Method: Gene corresponding to the ligand binding domain of RORγ (247-497 amino acids) was sub-cloned into pGEX4T1 vector. Transformants of E. coli BL21 (DE3) containing pGEX4T1-RORγ (247-497) were grown to an OD of 0.8 at 37° C. and induced with 0.5 mM isopropyl-β-D-thiogalactopyranoside (IPTG) for 18 hours at 18° C. Cells were harvested and resuspended in 20 mM Tris-HCl (pH 8.5), 0.3 M NaCl, 10% Glycerol, 2 mM β-Me (β-Mercaptoethanol), 2 mM CHAPS, protease inhibitors, 0.6 mM PMSF and Lysozyme. Supernatant of lysate was passed through glutathione sepharose 4B affinity beads (GE health care) pre-equilibrated with 20 mM Tris-HCl (pH 8.5), 0.3 M NaCl, 10% Glycerol, 2 mM β-Me. RORγ was eluted using a gradient of reduced glutathione (3-20 mM). Fractions containing RORγ protein were pooled, concentrated and passed through Superdex 75 gel filtration (GE health care) column equilibrated with 20 mM Na-phosphate pH 8.0, 0.2 M NaCl, 10% glycerol. The peak fractions from gel filtration column were pooled and stored at −80° C. for Binding assay.
ROR gamma radioligand binding was performed using ^3H 25-Hydroxycholesterol in a competitive displacement assay using dextran charcoal method. Using 5 nM ^3H 25-Hydroxycholesterol with 300 ng RORγ LBD (in house expressed in E. coli) along with the compound were incubated in the binding buffer (50 mM HEPES, pH 7.5, 150 mM NaCl, 0.01% BSA and 5 mM MgCl2) for 30 min at room temperature. Then dextran-charcoal mixture (0.5% charcoal: 0.05% dextran) was used for separation and the supernatant was read on the Perkin Elmer Trilux Microbeta counter. Dose response curves were generated for 10 compound concentrations using GraphPad Prism software Version 5 (San Diego, Calif., USA) using non-linear regression curve fit for sigmoidal dose response (variable slope).

[1] = biological target: ROR gamma ligand binding domain (Homo sapiens (Human), UniProt P51449); test: ROR gamma luciferase reporter assay (GAL4-ROR gamma LBD, HEK293 cells); type: cell-based; details: 48 hours treatment, read-out: RORγ luciferase Reporter assay: IC50 (nM) (in range)
Summary of the method: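 HEK293 cells were co-transfected with a GAL4 DBD–RORγ LBD fusion (hRluc vector) and a 9xGAL4 UAS luc2P reporter, then treated with compounds for 48 h. Bright-Glo luminescence was used to derive potency.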

RORγ LBD, sequence (P51449 268-518): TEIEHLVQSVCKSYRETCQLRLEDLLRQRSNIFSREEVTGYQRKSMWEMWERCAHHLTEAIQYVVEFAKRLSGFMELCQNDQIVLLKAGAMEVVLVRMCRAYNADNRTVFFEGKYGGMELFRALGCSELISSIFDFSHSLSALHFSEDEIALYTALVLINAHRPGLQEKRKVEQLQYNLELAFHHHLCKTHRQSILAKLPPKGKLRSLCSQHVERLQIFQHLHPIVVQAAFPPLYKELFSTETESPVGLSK
ROR gamma ligand binding domain, sequence (P51449 269-508): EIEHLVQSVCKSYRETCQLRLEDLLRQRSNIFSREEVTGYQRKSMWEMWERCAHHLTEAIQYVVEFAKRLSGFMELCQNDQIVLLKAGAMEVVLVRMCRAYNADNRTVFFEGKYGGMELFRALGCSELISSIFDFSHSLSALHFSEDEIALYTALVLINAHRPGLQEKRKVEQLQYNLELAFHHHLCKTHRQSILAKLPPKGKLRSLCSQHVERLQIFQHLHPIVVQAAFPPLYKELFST

| inhibition at 1 µM (RORγ LBD) [%] | inhibition at 10 µM (RORγ LBD) [%] | IC50 (RORγ LBD) [nM] | IC50 [1] [nM] | SMILES |
| --- | --- | --- | --- | --- |
| 91 | 100 | < 150 | 100 to 500 | CCS(=O)(=O)c1ccc(CC(=O)Nc2ccc3c(n2)CCC(C)(c2cc(C)nc(C)n2)C3=O)cc1 (centres unmarked) [Compound 7, N-(6-(2,6-dimethylpyrimidin-4-yl)-6-methyl-5-oxo-5,6,7,8-tetrahydroquinolin-2-yl)-2-(4-(ethylsulfonyl)phenyl)acetamide] |
| 90 | 100 | < 150 | 100 to 500 | CCS(=O)(=O)c1ccc(CC(=O)Nc2ccc3c(n2)CCC(C)(c2nccn4cc(C)nc24)C3=O)cc1 (centres unmarked) [Compound 9, 2-(4-(ethylsulfonyl)phenyl)-N-(6-methyl-6-(2-methylimidazo[1,2-a]pyrazin-8-yl)-5-oxo-5,6,7,8-tetrahydroquinolin-2-yl)acetamide] |
| 25 | 71 | – | > 500 | CCS(=O)(=O)c1ccc(CC(=O)Nc2nc3c(cc2C)C(=O)C(C)(c2nccn4ccnc24)CC3)cc1 (centres unmarked) [Compound 11, 2-(4-(ethylsulfonyl)phenyl)-N-(6-(imidazo[1,2-a]pyrazin-8-yl)-3,6-dimethyl-5-oxo-5,6,7,8-tetrahydroquinolin-2-yl)acetamide] |
| – | – | < 150 | 100 to 500 | CCS(=O)(=O)c1ccc(CC(=O)Nc2ccc3c(n2)CCC(C)(c2ccc(OC)nn2)C3=O)cc1 (centres unmarked) [Compound 12, 2-(4-(ethylsulfonyl)phenyl)-N-(6-(6-methoxypyridazin-3-yl)-6-methyl-5-oxo-5,6,7,8-tetrahydroquinolin-2-yl)acetamide] |
| 0 | 26 | – | > 500 | CCC1(c2nccn3ccnc23)CCc2nc(NC(=O)Cc3ccc(S(=O)(=O)CC)cc3)ccc2C1=O (centres unmarked) [Compound 14, N-(6-ethyl-6-(imidazo[1,2-a]pyrazin-8-yl)-5-oxo-5,6,7,8-tetrahydroquinolin-2-yl)-2-(4-(ethylsulfonyl)phenyl)acetamide] |
| 95 | 92 | < 150 | < 100 | CCS(=O)(=O)c1ccc(CC(=O)Nc2ccc3c(n2)CCC(C)(c2nccn4cccc24)C3=O)cc1 (centres unmarked) [Compound 15, 2-(4-(ethylsulfonyl)phenyl)-N-(6-methyl-5-oxo-6-(pyrrolo[1,2-a]pyrazin-1-yl)-5,6,7,8-tetrahydroquinolin-2-yl)acetamide] |
| 86 | 93 | 150 to 300 | < 100 | CCS(=O)(=O)c1ccc(CC(=O)Nc2ccc3c(n2)CCC(C)(c2nc(C)cn4ccnc24)C3=O)cc1 (centres unmarked) [Compound 16, 2-(4-(ethylsulfonyl)phenyl)-N-(6-methyl-6-(6-methylimidazo[1,2-a]pyrazin-8-yl)-5-oxo-5,6,7,8-tetrahydroquinolin-2-yl)acetamide] |
| 92 | 96 | – | < 100 | CCS(=O)(=O)c1ccc(CC(=O)Nc2cc(C)c3c(n2)CCC(C)(c2ccc(OC)nc2)C3=O)cc1 (centres unmarked) [Compound 17, 2-(4-(ethylsulfonyl)phenyl)-N-(6-(6-methoxypyridin-3-yl)-4,6-dimethyl-5-oxo-5,6,7,8-tetrahydroquinolin-2-yl)acetamide] |
| 76 | 95 | – | 100 to 500 | CCS(=O)(=O)c1ccc(CC(=O)Nc2cc(C)c3c(n2)CCC(C)(c2ccc(OC)cn2)C3=O)cc1 (centres unmarked) [Compound 20, 2-(4-(ethylsulfonyl)phenyl)-N-(6-(5-methoxypyridin-2-yl)-4,6-dimethyl-5-oxo-5,6,7,8-tetrahydroquinolin-2-yl)acetamide] |
| 94 | 92 | 150 to 300 | < 100 | CCS(=O)(=O)c1ccc(CC(=O)Nc2cc(C)c3c(n2)CCC(C)(c2nccc(OC)n2)C3=O)cc1 (centres unmarked) [Compound 21, 2-(4-(ethylsulfonyl)phenyl)-N-(6-(4-methoxypyrimidin-2-yl)-4,6-dimethyl-5-oxo-5,6,7,8-tetrahydroquinolin-2-yl)acetamide] |
| 76 | 95 | – | 100 to 500 | CCS(=O)(=O)c1ccc(CC(=O)Nc2cc(C)c3c(n2)CCC(C)(c2cc(OC)ccn2)C3=O)cc1 (centres unmarked) [Compound 22, 2-(4-(ethylsulfonyl)phenyl)-N-(6-(4-methoxypyridin-2-yl)-4,6-dimethyl-5-oxo-5,6,7,8-tetrahydroquinolin-2-yl)acetamide] |
| 65 | 99 | > 300 | 100 to 500 | CCS(=O)(=O)c1ccc(CC(=O)Nc2cc(C)c3c(n2)CCC(C)(c2nccn4ccnc24)C3=O)cc1 (centres unmarked) [Compound 26, 2-(4-(ethylsulfonyl)phenyl)-N-(6-(imidazo[1,2-a]pyrazin-8-yl)-4,6-dimethyl-5-oxo-5,6,7,8-tetrahydroquinolin-2-yl)acetamide] |
| 77 | 100 | 150 to 300 | 100 to 500 | CCS(=O)(=O)c1ccc(CC(=O)Nc2cc(C)c3c(n2)CCC(C)(c2cc(C)nc(C)n2)C3=O)cc1 (centres unmarked) [Compound 28, N-(6-(2,6-dimethylpyrimidin-4-yl)-4,6-dimethyl-5-oxo-5,6,7,8-tetrahydroquinolin-2-yl)-2-(4-(ethylsulfonyl)phenyl)acetamide] |
| 84 | 91 | 150 to 300 | < 100 | CCS(=O)(=O)c1ccc(CC(=O)Nc2cc(C)c3c(n2)CCC(C)(c2nc(C)cc(C)n2)C3=O)cc1 (centres unmarked) [Compound 29, N-(6-(4,6-dimethylpyrimidin-2-yl)-4,6-dimethyl-5-oxo-5,6,7,8-tetrahydroquinolin-2-yl)-2-(4-(ethylsulfonyl)phenyl)acetamide] |
| 90 | 88 | < 150 | < 100 | CCS(=O)(=O)c1ccc(CC(=O)Nc2cc(C)c3c(n2)CCC(C)(c2ccc(OC)nn2)C3=O)cc1 (centres unmarked) [Compound 31, 2-(4-(ethylsulfonyl)phenyl)-N-(6-(6-methoxypyridazin-3-yl)-4,6-dimethyl-5-oxo-5,6,7,8-tetrahydroquinolin-2-yl)acetamide] |
| 74 | 97 | > 300 | > 500 | CCS(=O)(=O)c1ccc(CC(=O)Nc2cc(C)c3c(n2)CCC(C)(c2ccc(C)nn2)C3=O)cc1 (centres unmarked) [Compound 34, N-(4,6-dimethyl-6-(6-methylpyridazin-3-yl)-5-oxo-5,6,7,8-tetrahydroquinolin-2-yl)-2-(4-(ethylsulfonyl)phenyl)acetamide] |
| 80 | 98 | 150 to 300 | 100 to 500 | COc1ccc(C2(C)CCc3nc(NC(=O)Cc4ccc(S(C)(=O)=O)cc4)cc(C)c3C2=O)nn1 (centres unmarked) [Compound 35, N-(6-(6-methoxypyridazin-3-yl)-4,6-dimethyl-5-oxo-5,6,7,8-tetrahydroquinolin-2-yl)-2-(4-(methylsulfonyl)phenyl)acetamide] |
| 44 | 88 | – | > 500 | CCS(=O)(=O)c1ccc(CC(=O)Nc2ccc3c(n2)CCC(C)(c2ccc(O)nc2)C3=O)cc1 (centres unmarked) [Compound 40, 2-(4-(ethylsulfonyl)phenyl)-N-(6-(6-hydroxypyridin-3-yl)-6-methyl-5-oxo-5,6,7,8-tetrahydroquinolin-2-yl)acetamide] |
| 47 | 82 | – | > 500 | CCc1ccc(C2(C)CCc3nc(NC(=O)Cc4ccc(S(=O)(=O)CC)cc4)ccc3C2=O)nn1 (centres unmarked) [Compound 41, N-(6-(6-ethylpyridazin-3-yl)-6-methyl-5-oxo-5,6,7,8-tetrahydroquinolin-2-yl)-2-(4-(ethylsulfonyl)phenyl)acetamide] |
| 66 | 73 | – | < 100 | CCS(=O)(=O)c1ccc(CC(=O)Nc2ccc3c(n2)CCC(C)(c2ccc(C)s2)C3=O)cc1 (centres unmarked) [Compound 45, 2-(4-(ethylsulfonyl)phenyl)-N-(6-methyl-6-(5-methylthiophen-2-yl)-5-oxo-5,6,7,8-tetrahydroquinolin-2-yl)acetamide] |
| 93 | 82 | 150 to 300 | 100 to 500 | CCS(=O)(=O)c1ccc(CC(=O)Nc2ccc3c(n2)CCC(C)(c2nccn4c(C)cnc24)C3=O)cc1 (centres unmarked) [Compound 49, 2-(4-(ethylsulfonyl)phenyl)-N-(6-methyl-6-(3-methylimidazo[1,2-a]pyrazin-8-yl)-5-oxo-5,6,7,8-tetrahydroquinolin-2-yl)acetamide] |
